The values below come from ChEMBL document CHEMBL3507680, “University of Dundee, Gates Library screen for HepG2 cell viability”.

The data set in a line: Human HepG2 cell viability assay in 384 well format. In kind it is toxicity, cell-based. Also noted: dose 125 nL, time 70.5 hour; cytotoxicity at 70.5 h: concentration not given beside the values. To be noted: HepG2 cells, read-out: Inhibition.
`CN(Cc1ccccn1)C(=O)CC1CCOc2ccccc21` (stereo unspecified): the cytotoxicity at 70.5 h was -8.29%. As to `CN(CC(=O)N1CCCC1)Cc1nc2c(cnn2C)c(=O)[nH]1`, the cytotoxicity at 70.5 h was -10.6%. Under `CCN(CC)C(=O)CN(C)Cc1nc2c(cnn2C)c(=O)[nH]1` stands -10.6%; under `CC(C)C(=O)Nc1ncn(Cc2cccc(Br)c2)n1`, -9.36%; under `CCc1nnc2n1CCN(C(=O)c1ccc3c(c1)NC(=O)CO3)C2`, -1.73%. In the case of `Cn1cnc2c1CCN(CCCOc1ccc(S(C)(=O)=O)cc1)C2`, the cytotoxicity at 70.5 h is -11.2%. Under `CC(C)c1nnc2n1CCN(C(=O)c1ccc3c(c1)COC3)C2` stands -0.783%. Under `CSCC(=O)Nc1ncn(Cc2cccc(Br)c2)n1` stands -8.51%; under `Cn1cnc2c1CCN(CC(O)c1ccc3c(c1)OCCO3)C2` (stereo unspecified), 9.43%. Under `Cc1cc(C)n(CC2CCCN2C(=O)Cc2csc(C)n2)n1` (stereo unspecified) stands -1.11%; under `Cn1cnc2c1CCN(CC(O)c1ccc(S(C)(=O)=O)cc1)C2` (stereo unspecified), -8.26%.

For the molecule `O=C(O)c1ccc(S(=O)(=O)Nc2ccccc2F)c(F)c1`, the cytotoxicity at 70.5 h was -11%. With `Cc1cc(C)c(S(=O)(=O)Nc2ccccc2CC(F)(F)F)cc1C(=O)O`, the cytotoxicity at 70.5 h is -8.62%. Under `CNC(=O)Cc1noc(Cc2ccc3c(c2)CCCC3)n1` stands 12.5%; under `Cc1ccc(Cl)c2c1C1(NC(=O)c3cccnc3N1)C(=O)N2` (stereo unspecified), -5.73%; under `Cn1cc(NC(=O)Nc2ccccn2)cc(Cl)c1=O`, 9.47%. For the molecule `COC(=O)c1ccc(N(C)C2CCC2)nn1`, the cytotoxicity at 70.5 h was -5.28%.

`CN(c1ccc(C(N)=O)nn1)C1CCC1`: the cytotoxicity at 70.5 h is -15.8%. For `O=C(NCCc1nnc2n1CCCCC2)N1CCC2(CCOC2)C1` (stereo unspecified) the value was -5.08%; for `CS(=O)(=O)Cc1nc(CN2CCCc3sccc3C2)cs1`, -5.84%; for `CCN(C)c1ccc(CNS(=O)(=O)C2CCOCC2)cc1F`, -10.6%. Under `CNC(=O)c1ccc(N(C)C2CCC2)nn1` stands 9.71%.

On to `CN(Cc1ccc(Cl)c(F)c1)C(=O)CCc1ccncc1`, for which the cytotoxicity at 70.5 h was -6.42%.

Consider `CCCn1nnnc1CN(C)C(C)c1ccc(C)cc1` (stereo unspecified), for which the cytotoxicity at 70.5 h was -5.6%. Under `CCCn1nnnc1CN(c1ccc(N2CCOCC2)cc1)C(C)C` stands -8.46%; under `CS(=O)(=O)Cc1nc(CN2CCOc3ccccc3C2)cs1`, -6.97%. Under `CN(Cc1ccc(Cl)c(F)c1)C(=O)c1ccncc1F` stands -6.79%. Under `Cc1cc(C)n(CC2CCCN2C(=O)Cc2cn3ccsc3n2)n1` (stereo unspecified) stands -12.4%; under `CCn1nc(C)c(S(=O)(=O)N(C)c2ccc(Cl)cn2)c1C`, 12%; under `COC(=O)c1cccc(NCC(=O)NC(N)=O)c1`, 12.1%. For `COc1cc(CNC(C)Cn2ccnc2)cc2c1OCCO2` (stereo unspecified), the cytotoxicity at 70.5 h turned out to be 21.5%.

Turning to `O=C(COCc1ccccc1Cl)N1CCN(c2cnccn2)CC1`, the cytotoxicity at 70.5 h is -6.52%. Under `NC(=O)C1(CNC(=O)CCc2ccc(Cl)s2)CCOCC1` stands -7.77%; under `CNC(=O)C1CCCCN1C(=O)C1CCN(S(C)(=O)=O)CC1` (stereo unspecified), -11.7%. For `Cc1nc(CN2C[C@@H]3CN(C(=O)c4cnccn4)C[C@@H]3C2=O)cs1`, the cytotoxicity at 70.5 h is -10.8%. As for `COCC(=O)N1CCC2(CCC2NC(=O)c2ccn(C)c2)CC1` (stereo unspecified), the cytotoxicity at 70.5 h was -9.35%. For `Cc1ccc(CN2Cc3cnn(C)c3C(COCC3CC3)C2)o1` (stereo unspecified), the cytotoxicity at 70.5 h came to 2.56%.

`Cc1noc([C@@H]2C[C@H]3OCC[C@H]3N(Cc3ccoc3)C2)n1`: the cytotoxicity at 70.5 h is -6.19%. For `CN(C)C(=O)COC1COC2(CCN(c3ncccn3)CC2)C1` (stereo unspecified) the value was -7.32%; for `Cc1nc(CN2C[C@@H]3CN(C(=O)c4ccoc4C)C[C@@H]3C2=O)cs1`, -10%.

Consider `CCOCC1CN(C(=O)Cc2cccs2)Cc2ccnn2C1` (stereo unspecified), for which the cytotoxicity at 70.5 h is -9.44%. Under `Cc1nc(CN2C(=O)CC[C@@H]3[C@H]2CCN3C(=O)c2ccc[nH]2)cs1` stands -7.13%; under `CN(Cc1cccnc1)CC1CN(C(N)=O)Cc2nccn2C1` (stereo unspecified), -2.38%; under `CC(=O)N1CC2(CCNCC2)c2cc(C)ccc21`, 20.4%. As to `O=C(CC1CC1)NCc1cn2c(n1)CN(C(=O)C1CCOCC1)CC2`, the cytotoxicity at 70.5 h is -4.63%. Take `CC(Cn1ccnc1)NCc1cc(Br)c2c(c1)OCO2` (stereo unspecified): the cytotoxicity at 70.5 h amounted to 12.5%. For `COc1cc(CNC(C)Cn2ccnc2)cc2c1OCO2` (stereo unspecified) the value was -10.9%; for `COc1cc(CNCCn2ccnc2)cc2c1OCO2`, 1.27%. Under `CC(C)NC(=O)N1Cc2nccn2CC(CN2CCCC2)C1` (stereo unspecified) stands -6.64%; under `CNC(=O)COC1COC2(CCN(c3ccc(C#N)cc3)CC2)C1` (stereo unspecified), -5.98%; under `CC(=O)NCC(=O)N1Cc2nccn2CC(CN(C)C(C)C)C1` (stereo unspecified), -13.6%. Under `c1coc(COCc2ncn3c2CN(Cc2cccs2)CCC3)c1` stands -2.67%; under `Cc1nc(CN2C[C@@H]3CN(C(=O)[C@H]4CCCO4)C[C@@H]3C2=O)cs1`, -8.74%.

For `CCc1ccc(CN2C[C@@H](c3nc(C)no3)C[C@H]3OCC[C@H]32)o1`, the cytotoxicity at 70.5 h was -3.87%. For `c1csc(CN2CCCn3cnc(COCC4CC4)c3C2)c1` the value was 0.853%. Regarding `Cc1nc(CN2CCc3ncnc(-c4ccccc4)c3CC2)cs1`, the cytotoxicity at 70.5 h is -9.56%. Under `CC(C)OCc1ncn2c1CN(Cc1nccs1)CCC2` stands -6.03%; under `O=C1CO[C@@H]2CN(CC3CCOC3)C[C@H]2N1Cc1cccc(F)c1` (stereo partly specified), -6.08%; under `Cc1noc([C@H]2C[C@H]3OCC[C@H]3N(Cc3ccc(F)cc3)C2)n1`, -8.23%.

Turning to `Cc1noc([C@@H]2C[C@H]3OCC[C@H]3N(Cc3sccc3C)C2)n1`, the cytotoxicity at 70.5 h turned out to be 4.03%. For `CC(=O)NCC(=O)N1CCC2(CC1)NC(=O)CC2c1cccnc1` (stereo unspecified) the value was -1.28%; for `Cc1nc(CN2C(=O)CC[C@@H]3[C@H]2CCN3C(=O)c2ccccn2)cs1`, -4.48%; for `O=C(CC1CC1)NCc1cn2c(n1)CN(Cc1nccs1)CC2`, -6.29%. Consider `Cc1ncnc2c1CCN(C(=O)c1ccncc1F)CC2`, for which the cytotoxicity at 70.5 h was -8.13%.

For the molecule `Cn1cc(C2CC(=O)NC23CCN(C(=O)c2cccnc2)CC3)cn1` (stereo unspecified), the cytotoxicity at 70.5 h was -3.63%. For `O=C(CC1CC1)NCc1cn2c(n1)CN(Cc1cccc(F)c1)CC2` the value was -3.4%; for `CCOCCN1Cc2cnn(C)c2C(COCC)C1` (stereo unspecified), 8.6%. For `O=C(CC1CC1)NCc1cn2c(n1)CN(Cc1cccnc1)CC2` the value was -8.95%; for `c1cnn(Cc2cnc3n2CCN(CC2CCCCC2)C3)c1`, -6.48%; for `c1ccc(CN2CCc3ncnc(-c4cccnc4)c3CC2)nc1`, -7.48%. For `c1cnc(N2CCCC3(CCN(CC4CC4)C3)C2)nc1` (stereo unspecified), the cytotoxicity at 70.5 h is -6.19%.
